This note sets out measurements from article PMC3062254 (Molecular microbiology, 2011).

Test in all cases: NADPH/GSH reductase-coupled HED assay, A340
What all share (format): biochemical
Common to all, as to conditions: read-out: Km (HED); 0.5 mM GSH, 0.2 mM NADPH, yeast GSH reductase, 50 mM sodium phosphate pH 7.5, 50 mM NaCl, 25 °C

In test [1] the target is cGrx1 (Clostridium selenoprotein Grx1) (Alkaliphilus oremlandii, UniProt A8MIN3, U13C).
The target of test [2] is eGrx1 (E. coli Grx1) (Escherichia coli, UniProt P68688).
Chain of eGrx1 (E. coli Grx1) (P68688 whole entry): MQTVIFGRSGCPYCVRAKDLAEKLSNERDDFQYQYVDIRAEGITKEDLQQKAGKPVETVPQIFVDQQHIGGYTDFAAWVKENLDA
For test [3], the target named is cGrx2 (Clostridium Cys-containing Grx2) (Alkaliphilus oremlandii, UniProt A8MJH2).
For test [4], the target named is cGrx2 (Clostridium Cys-containing Grx2) (Alkaliphilus oremlandii, UniProt A8MJH2, C15S).

In general, Km refers to the substrate concentration at which the rate is half of its maximum.

Molecules are shown by their SMILES.

Consider `OCCSSCCO` [hydroxyethyl disulfide], for which the Km in test [1] amounted to 1.5 ± 0.8 mM; in test [2] it was 11.2 ± 2.2 mM; in test [3], 17.6 ± 5.6 mM; in test [4], 18.1 ± 4.5 mM.
